Results reported in US20090181920A1, “INTRATHECAL TREATMENT OF NEUROPATHIC PAIN WITH A2AR AGONISTS” (PGXHEALTH, LLC, priority 2008, published 2009).

Assays:
CCI-induced allodynia [1] = assay: Blockade and reversal of A2A agonist (ATL313) by antagonist ZM241385 in the CCI model, von Frey testing; assay type: in vivo, male Sprague-Dawley rats
Experimental: (§1) Saline is used as the vehicle in the experiments. All A2A agonists are dissolved in 100% DMSO to a 10 mM concentration. These are then diluted 1:10,000 with saline. The total volume of injection for all groups is 5 μL, which consists of a 1 μL air bubble, 1 μL of agonist/vehicle, 1 μL air bubble, and finally a 2 μL flush of saline. The intermediate air bubble is used to separate drug/vehicle and the flush.
CCI surgery and indwelling intrathecal catheters were implanted in male Sprague-Dawley rats (325-350 g, n=6/group). 10-14 days after surgery, when the allodynia is stable, an A2A antagonist (ZM241385, 10 uM, Tocris Bioscience) or vehicle was co-administered with ATL313 or vehicle. von Frey testing was done before surgery, before intrathecal injections, and 1, 2, 3, 4, 6, and 24 h after injection.
In a separate group of animals, ATL313 (1 uM) was administered 10-14 days after CCI surgery. One week after ATL313 (1 uM, i.t.) administration, ZM241385 (10 uM) or equivolume vehicle was administered intrathecally. von Frey testing was done 1, 2, 3, 4, 6 & 24 h after injection.

CCI-induced allodynia [2] = assay: Chronic constriction injury (CCI) neuropathic pain model, von Frey testing after a single intrathecal injection; assay type: in vivo, Sprague Dawley rats; settings: for Effect on CCI-induced allodynia relative to ATL313 and CGS21680: tested at 1 uM
Experimental: as §1
Sprague Dawley rats underwent chronic constriction injury (CCI) of the sciatic nerve or sham surgery. After pre-surgery baseline testing (Day 0=D0), rats received chronic constriction injury of the left sciatic nerve at mid-thigh level to produce neuropathic pain (chronic constriction injury model: CCI). This is seen by the fall in pain threshold between days 4 and 11 (D4, D11) after surgery relative to D0. Once CCI-induced allodynia was stable as tested by von Frey filaments, the material to be studied (e.g., vehicle or A2AR agonists CGS21680 or ATL313) was injected intrathecally. After injection, behavioral testing occurred at 4, 24, and 72 h and then weekly for 6 weeks.
The results of the studies are shown in FIG. 1 with the translation of Y-axis units as follows: 5=10 grams, 4.75=5.62 grams, 4.5=3.16 grams, 4.25=[…], 4=1 gram, 3.75=0.56 grams, 3.5=0.32 grams.
Although the CCI surgery is unilateral (left sciatic nerve), the allodynia is present bilaterally. In addition, the reversal of allodynia by A2A agonism also occurs bilaterally. Therefore, ATL313 activates A2A receptors within the spinal cord altering the mechanisms leading to central sensitization.
The animals following unilateral CCI surgery of the left sciatic nerve, as noted above, have allodynia in both hind paws. For simplicity all graphs show left hind paw responses only, as the right hind paw had equivalent responses.

[3] = single intrathecal injection, 1 uM, given 10-14 days after CCI surgery, P<0.05

Compound: Nc1nc(NCCc2ccc(O)cc2)nc2nc(-c3ccco3)nn12 [ZM241385]
- Effect of co-administered antagonist on the ATL313 effect on CCI-induced allodynia (CCI-induced allodynia [1]; ZM241385 10 uM co-administered intrathecally with ATL313 1 uM, 10-14 days after CCI surgery, P<0.0001): abolishes the effect of ATL313 on the CCI-induced allodynia
- Effect of antagonist on the established reversal of allodynia (CCI-induced allodynia [1]; ZM241385 10 uM intrathecal, one week after ATL313 1 uM i.t.): had no effect on reversal of the allodynia induced by the previous ATL313 administration
- Effect of antagonist alone on CCI-induced allodynia (CCI-induced allodynia [1]; ZM241385 10 uM intrathecal, without agonist, P>0.05): has no effect on the CCI-induced allodynia

Compound: COc1ccccc1OC(=O)N1CCC(CC#Cc2nc(N)c3ncn(C4OC(C(=O)NC5CC5)C(O)C4O)c3n2)CC1 (centres unmarked) [Compound A, 4-{3-[6-Amino-9-(5-cyclopropylcarbamoyl-3,4-dihydroxy-tetrahydro-furan-2-yl)-9H-purin-2-yl]-prop-2-ynyl}-piperidine-1-carboxylic acid 2-methoxyphenyl ester]
- Effect on CCI-induced allodynia relative to ATL313 and CGS21680 (CCI-induced allodynia [2]; intrathecal): ranged between ATL313 (1 μM) and CGS21680 (1 μM)

Compound: COC(=O)N1CCC(CC#Cc2nc(N)c3ncn(C4OC(C(=O)NC5CC5)C(O)C4O)c3n2)CC1 (centres unmarked) [ATL313, 4-{3-[6-amino-9-(5-cyclopropylcarbamoyl-3,4-dihydroxy-tetrahydro-furan-2-yl)-9H-purin-2-yl]-prop-2-ynyl}-piperidine-1-carboxylic acid methyl ester]
- Effect on CCI-induced allodynia (CCI-induced allodynia [2]; 0.1 uM in 5 uL intrathecal, compared to saline-injected animals, P>0.05): no significant impact on CCI-induced allodynia
- Analgesic effect in sham-operated animals (CCI-induced allodynia [2]; sham-operated animals, intrathecal, P>0.05): no effect on sham-operated animals
- Duration of reversal of allodynia (CCI-induced allodynia [2]; [3]): at least 4 weeks
- Effect on CCI-induced allodynia (mechanical sensitivity to von Frey filaments) (CCI-induced allodynia [2]; [3]): partial reversal of the allodynia

Compound: CCNC(=O)[C@H]1O[C@@H](n2cnc3c(N)nc(NCCc4ccc(CCC(=O)O)cc4)nc32)[C@H](O)[C@@H]1O [CGS21680, 3-[4-[2-[[6-amino-9-[(2R,3R,4S,5S)-5-(ethylcarbamoyl)-3,4-dihydroxy-oxolan-2-yl]purin-2-yl]amino]ethyl]phenyl]propanoic acid, reference compound]
- Reversal of CCI-induced allodynia compared with ATL313 (CCI-induced allodynia [2]; intrathecal, at a 10-fold higher dose than that of ATL313, P<0.001): comparable reversal of CCI-induced allodynia, in both duration and intensity

Compound: Nc1nc(C#CCC2CCN(C(=O)OCC3CC3)CC2)nc2c1ncn2C1OC(C(=O)NC2CC2)C(O)C1O (centres unmarked) [Compound C, 4-{3-[6-Amino-9-(5-cyclopropylcarbamoyl-3,4-dihydroxy-tetrahydro-furan-2-yl)-9H-purin-2-yl]-prop-2-ynyl}-piperidine-1-carboxylic acid cyclopropylmethyl ester]
- Effect on CCI-induced allodynia relative to ATL313 and CGS21680 (CCI-induced allodynia [2]; intrathecal): ranged between ATL313 (1 μM) and CGS21680 (1 μM)

Compound: Nc1nc(C#CCC2CCN(C(=O)OC3CCC3)CC2)nc2c1ncn2C1OC(C(=O)NC2CC2)C(O)C1O (centres unmarked) [Compound B, 4-{3-[6-Amino-9-(5-cyclopropylcarbamoyl-3,4-dihydroxy-tetrahydro-furan-2-yl)-9H-purin-2-yl]-prop-2-ynyl}-piperidine-1-carboxylic acid cyclobutyl ester]
- Effect on CCI-induced allodynia relative to ATL313 and CGS21680 (CCI-induced allodynia [2]; intrathecal): ranged between ATL313 (1 μM) and CGS21680 (1 μM)
